Legend:
[1] = biological target: T1, HIV-1 integrase (Human immunodeficiency virus type 1 group M subtype B, UniProt P04585); experiment: HIV-1 integrase strand transfer (ST) activity assay; assay type: biochemical; conditions: 1 h; read-out: IC50 (inhibition of strand transfer)
T1 construct: pre-incubated with 800 ng integrase at 37.8 °C in the reaction buffer
Protocol: A HIV-1 integrase strand transfer (ST) activity assay was carried out to test the inhibition effectiveness of our compounds as described previously with some minor modifications. Compounds diluted in DMSO were pre-incubated with 800 ng integrase at 37.8 °C in the reaction buffer in the absence of Mn^2+ for 10 min. Subsequently, 1.5 pmol donor DNA and 9 pmol target DNA were added and the reaction was initiated by the addition of 10 mmol/L Mn^2+ into the final reaction volume. The reactions were carried out at 37.8 °C for 1 h and subsequent detection procedure was applied to detect the assay signals.

SMILES	inhibition at 100 µg/mL [1]	melting point
Cc1cc(C)n(Cc2ccc3[nH]cc(C(=O)O)c(=O)c3c2)n1 [Compound 11a, 6-((3,5-Dimethyl-1H-pyrazol-1-yl)methyl)-4-oxo-1,4-dihydroquinoline-3-carboxylic acid]	< 50%	254 to 256 °C
Cc1nn(Cc2ccc3c(c2)c(=O)c(C(=O)O)cn3CCCS)c(C)c1Cl [Compound 14b, 1-(3-Mercaptopropyl)-6-((4-chloro-3,5-dimethyl-1H-pyrazol-1-yl)methyl)-4-oxo-1,4-dihydro-quinoline-3-carboxylic acid]	< 50%	238 to 240 °C
Cc1nn(Cc2ccc3c(c2)c(=O)c(C(=O)O)cn3CC(O)CO)c(C)c1Br (stereo not drawn) [Compound 12c, 1-(2,3-Dihydroxypropyl)-6-((4-bromo-3,5-dimethyl-1H-pyrazol-1-yl)methyl)-4-oxo-1,4-dihydroquino-line-3-carboxylic acid]	< 50%	267 to 269 °C
Cc1nn(Cc2ccc3c(c2)c(=O)c(C(=O)O)cn3Cc2ccc(F)cc2)c(C)c1Br [Compound 15c, 1-(4-Fluorobenzyl)-6-((4-bromo-3,5-dimethyl-1H-pyrazol-1-yl)methyl)-4-oxo-1,4-dihydro-quinoline-3-carboxylic acid]	< 50%	255 to 257 °C
Cc1cc(C)n(Cc2ccc3c(c2)c(=O)c(C(=O)O)cn3CC(O)CO)n1 (stereo not drawn) [Compound 12a, 1-(2,3-Dihydroxypropyl)-6-((3,5-dimethyl-1H-pyrazol-1-yl)methyl)-4-oxo-1,4-dihydroquinoline-3-carboxylic acid]	< 50%	187 to 189 °C
Cc1nn(Cc2ccc3c(c2)c(=O)c(C(=O)O)cn3CCCS)c(C)c1Br [Compound 14c, 6-((4-Bromo-3,5-dimethyl-1H-pyrazol-1-yl)methyl)-1-(3-mercaptopropyl)-4-oxo-1,4-dihydroquinoline-3-carboxylic acid]	< 50%	231 to 233 °C
Cc1cc(C)n(Cc2ccc3c(c2)c(=O)c(C(=O)O)cn3Cc2ccc(F)cc2)n1 [Compound 15a, 1-(4-Fluorobenzyl)-6-((3,5-dimethyl-1H-pyrazol-1-yl)methyl)-4-oxo-1,4-dihydro-quinoline-3-carboxylic acid]	< 50%	271 to 273 °C
Cc1cc(C)n(Cc2ccc3c(c2)c(=O)c(C(=O)O)cn3CC(=O)O)n1 [Compound 13a, 1-(Carboxymethyl)-6-((3,5-dimethyl-1H-pyrazol-1-yl)methyl)-4-oxo-1,4-dihydroquinoline-3-carboxylic acid]	< 50%	> 300 °C
Cc1nn(Cc2ccc3c(c2)c(=O)c(C(=O)O)cn3CC(O)CO)c(C)c1Cl (stereo not drawn) [Compound 12b, 1-(2,3-Dihydroxypropyl)-6-((4-chloro-3,5-dimethyl-1H-pyrazol-1-yl)methyl)-4-oxo-1,4-dihydro-quinoline-3-carboxylic acid]	< 50%	278 to 280 °C
Cc1nn(Cc2ccc3[nH]cc(C(=O)O)c(=O)c3c2)c(C)c1Br [Compound 11c, 6-((4-Bromo-3,5-dimethyl-1H-pyrazol-1-yl)methyl)-4-oxo-1,4-dihydroquinoline-3-carboxylic acid]	< 50%	253 to 256 °C
Cc1cc(C)n(Cc2ccc3c(c2)c(=O)c(C(=O)O)cn3CCCS)n1 [Compound 14a, 1-(3-Mercaptopropyl)-6-((3,5-dimethyl-1H-pyrazol-1-yl)methyl)-4-oxo-1,4-dihydroquinoline-3-carboxylic acid]	< 50%	225 to 226 °C
Cc1nn(Cc2ccc3[nH]cc(C(=O)O)c(=O)c3c2)c(C)c1Cl [Compound 11b, 6-((4-Chloro-3,5-dimethyl-1H-pyrazol-1-yl)methyl)-4-oxo-1,4-dihydroquinoline-3-carboxylic acid]	< 50%	263 to 265 °C
Cc1nn(Cc2ccc3c(c2)c(=O)c(C(=O)O)cn3Cc2ccc([N+](=O)[O-])cc2)c(C)c1Cl [Compound 16b, 1-(4-Nitrobenzyl)-6-((4-chloro-3,5-dimethyl-1H-pyrazol-1-yl)methyl)-4-oxo-1,4-dihydroquinoline-3-carboxylic acid]	< 50%	282 to 284 °C
Cc1nn(Cc2ccc3c(c2)c(=O)c(C(=O)O)cn3CC(=O)O)c(C)c1Br [Compound 13c, 1-(Carboxymethyl)-6-((4-bromo-3,5-dimethyl-1H-pyrazol-1-yl)methyl)-4-oxo-1,4-dihydro-quinoline-3-carboxylic acid]	< 50%	278 to 280 °C
Cc1cc(C)n(Cc2ccc3c(c2)c(=O)c(C(=O)O)cn3Cc2ccc([N+](=O)[O-])cc2)n1 [Compound 16a, 1-(4-Nitrobenzyl)-6-((3,5-dimethyl-1H-pyrazol-1-yl)methyl)-4-oxo-1,4-dihydro-quinoline-3-carboxylic acid]	< 50%	274 to 276 °C
Cc1nn(Cc2ccc3c(c2)c(=O)c(C(=O)O)cn3Cc2ccc(F)cc2)c(C)c1Cl [Compound 15b, 1-(4-Fluorobenzyl)-6-((4-chloro-3,5-dimethyl-1H-pyrazol-1-yl)methyl)-4-oxo-1,4-dihydro-quinoline-3-carboxylic acid]	< 50%	239 to 241 °C
Cc1nn(Cc2ccc3c(c2)c(=O)c(C(=O)O)cn3Cc2ccc([N+](=O)[O-])cc2)c(C)c1Br [Compound 16c, 1-(4-Nitrobenzyl)-6-((4-bromo-3,5-dimethyl-1H-pyrazol-1-yl)methyl)-4-oxo-1,4dihydroquinoline-3-carboxylic acid]	< 50%	266 to 268 °C
Cc1nn(Cc2ccc3c(c2)c(=O)c(C(=O)O)cn3CC(=O)O)c(C)c1Cl [Compound 13b, 1-(Carboxymethyl)-6-((4-chloro-3,5-dimethyl-1H-pyrazol-1-yl)methyl)-4-oxo-1,4-dihydroquinoline-3-carboxylic acid]	< 50%	292 to 295 °C
